Assay results from patent US8431563B2 (priority 2010, dated 2013).
Where a name gives a salt, the structure may show the parent alone.

How the values were obtained:
[1] = biological target: T1, GKRP (Glucokinase Regulatory Protein) with human His-hepatic GK (Homo sapiens, UniProt Q14397); test: GKRP NADPH Coupled Assay; assay type: biochemical; conditions: indirect measure of glucose-6-phosphate, fluorescence, 1 μM GKRP (10×), 20 nM GK (5×)
T1 sequence (Q14397 1-625): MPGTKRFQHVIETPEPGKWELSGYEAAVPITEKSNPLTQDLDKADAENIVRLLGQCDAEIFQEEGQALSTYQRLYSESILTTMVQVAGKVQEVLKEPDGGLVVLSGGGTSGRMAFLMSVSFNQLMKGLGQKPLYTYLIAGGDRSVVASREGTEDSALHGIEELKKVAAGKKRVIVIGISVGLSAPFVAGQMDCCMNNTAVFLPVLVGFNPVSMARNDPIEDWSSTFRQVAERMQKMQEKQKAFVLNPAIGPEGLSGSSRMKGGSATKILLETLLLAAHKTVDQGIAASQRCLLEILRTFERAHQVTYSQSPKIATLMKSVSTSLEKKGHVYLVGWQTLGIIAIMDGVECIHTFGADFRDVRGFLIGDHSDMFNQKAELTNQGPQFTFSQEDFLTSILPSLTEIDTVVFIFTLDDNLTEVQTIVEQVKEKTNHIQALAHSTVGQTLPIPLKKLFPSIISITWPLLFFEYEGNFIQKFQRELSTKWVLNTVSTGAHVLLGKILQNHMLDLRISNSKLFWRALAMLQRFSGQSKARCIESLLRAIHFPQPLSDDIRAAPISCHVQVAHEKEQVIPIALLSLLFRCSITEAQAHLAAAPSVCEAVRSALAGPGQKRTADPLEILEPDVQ
Method: (§1) This assay is used to directly measure the formation of ^13C-glucose-6-phosphate from ^13C-glucose by liquid chromatography-mass spectrometry (LC MS/MS). Begin by preparing the following solutions: Compound Buffer (CB): 50 mM Tris, pH 7.5/4 mM MgCl2/6% DMSO/fresh 10 mM DTT from 1M frozen stock. Enzyme Buffer (EB): 50 mM Tris, pH 7.5/4 mM MgCl2/6% DMSO/fresh 0.1% BSA/fresh 0.01% Brij-35 (10% BSA and 1% Brij-35 stock). GK (Glucokinase) Working Stock (5×): Dilute human His-hepatic GK to 30 nM in EB buffer. […] After 30 minutes add 10 μl of GK Working Stock (5×). Re-seal the plate and incubate for another 30 minutes at room temperature while mixing. After the second 30 minutes, stop the reaction by the addition of 50 μl of 100% acetonitrile, seal, and mix for 5-10 minutes. Run 10 μl of this sample through the LC MS/MS (API 3200, Applied Biosystems Inc., Carlsbad, Calif.).
This assay is used as an indirect measure of glucose-6-phosphate (G6P) formed from glucose due to the enzymatic activity of glucokinase. Assay format is the same as for GKRP LC MS/MS Biochemical Assay with the following exceptions. GK Working Stock (5×): Dilute human His-hepatic GK to 20 nM in EB buffer. Stop & Detection Reagent (2×): Dilute β-nicotinamide adenine dinucleotide phosphate sodium salt (β-NADP) (Aldrich-Sigma, St. Louis, Mo.) to 2 mM from 100 mM stock (stock in 10 mM Tris, pH 9.2) and dilute glucose-6-phosphate dehydrogenase (Aldrich-Sigma, St. Louis, Mo.) to 0.04 Unit/μl from 10 Unit/μl (stock in 10 mM Tris pH 7.5/0.05% Brij-35) in 0.2 M Tris, pH 9.2/8% DMSO. After the initial 30 minute incubation add 10 μl of 20 nM GK diluted in EB (5×). Re-seal the plate and incubate for another 1 hour at room temperature while mixing. After 1 hour remove the seal and add 50 μl of Stop & Detection Reagent and incubate for 5 minutes at room temperature while mixing.

[2] = biological target: T1, GKRP (Glucokinase Regulatory Protein) with human His-hepatic GK; test: GKRP LC MS/MS Biochemical Assay; conditions: 13C-glucose-6-phosphate formation, 1 μM GKRP (10×), 30 nM GK (5×)
Method: GKRP LC MS/MS Biochemical Assay
as §1

[3] = biological target: T1, GKRP (Glucokinase Regulatory Protein) with human His-hepatic GK; test: biochemical; conditions: 13C-glucose-6-phosphate formation; 280 nM GKRP (10×), 30 nM GK (5×); read-out: GK-GKRP EC50 (LC MS/MS-2)
Procedure, shortened: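 Product formation, 13C-glucose-6-phosphate from 13C-glucose, was measured directly by LC MS/MS after acetonitrile quench. The GK reaction ran 30 min at room temperature in Tris pH 7.5 buffer with 4 mM MgCl2 and 6% DMSO. The 5× enzyme stock was 30 nM His-tagged human hepatic glucokinase.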

[4] = read-out: GK-GKRP EC50 (LC MS/MS)

Question: With `CC(C)(CO)NCC1CN(S(=O)(=O)c2cccs2)CCN1c1ccc(C(C)(O)C(F)(F)F)cc1` (mixture of isomers) [Example 54, 2-methyl-2-(((4-(2-thiophenylsulfonyl)-1-(4-(2,2,2-trifluoro-1-hydroxy-1-methylethyl)phenyl)-2-piperazinyl)methyl)amino)-1-propanol] as the molecule, how does the EC50 ([1]; read-out: GK-GKRP EC50 (NADPH-coupled)) read?
Answer: 2970 nM

Question: What about the EC50 [2, 4] of the same molecule?
Answer: 2780 nM

Question: Which EC50 ([1]; GK-GKRP EC50 (NADPH-coupled)) does the source give for `CC(O)(c1ccc(N2CCN(S(=O)(=O)c3cccs3)CC2CC2CCOCC2)cc1)C(F)(F)F` (single isomer, unassigned) [Example 37 Peak #3, 1,1,1-trifluoro-2-(4-(2-(tetrahydro-2H-pyran-4-ylmethyl)-4-(2-thiophenylsulfonyl)-1-piperazinyl)phenyl)-2-propanol] here?
Answer: 13000 nM

Question: `CC(O)(c1ccc(-c2ccc(S(=O)(=O)c3ccccc3)c(Cl)c2)nc1)C(F)(F)F` (racemic) [Example 18, 2-(6-(3-chloro-4-(phenylsulfonyl)phenyl)-3-pyridinyl)-1,1,1-trifluoro-2-propanol] was tested. Which EC50 ([1]; GK-GKRP EC50 (NADPH-coupled)) did it give?
Answer: 3750 nM

Question: What about the EC50 ([2]; GK-GKRP EC50 (LC MS/MS)) of the same molecule?
Answer: 3570 nM

Question: With `O=S(=O)(c1cccs1)N1CCN(c2ccc(C(O)(CO)C(F)(F)F)cc2)[C@@H](Cc2ccccc2)C1` (single isomer, unassigned) [Example 68 Peak #2] as the molecule, how does the EC50 ([2]; GK-GKRP EC50 (LC MS/MS)) read?
Answer: 94 nM

Question: With `O=S(=O)(c1cccs1)N1CCN(c2ccc(C(O)(CO)C(F)(F)F)cc2)[C@@H](Cc2ccccc2)C1` (single isomer, unassigned) [Example 68 Peak #1] as the molecule, how does the EC50 ([2]; GK-GKRP EC50 (LC MS/MS)) read?
Answer: 870 nM

Question: `O=S(=O)(c1ccccc1)N1CCN(c2ncc(C(O)(C(F)(F)F)C(F)(F)F)cn2)CC1` [Example 23, 1,1,1,3,3,3-hexafluoro-2-(2-(4-(phenylsulfonyl)-1-piperazinyl)-5-pyrimidinyl)-2-propanol] was tested. Which EC50 ([2]; GK-GKRP EC50 (LC MS/MS)) did it give?
Answer: 1310 nM

Question: `C[C@H]1CN(S(=O)(=O)c2nccs2)CCN1c1ccc(C(C)(O)C(F)(F)F)cc1` (single isomer, unassigned) [Example 34 Peak #1] was tested. Which EC50 ([1]; GK-GKRP EC50 (NADPH-coupled)) did it give?
Answer: 2500 nM

Question: How did the EC50 ([1]; GK-GKRP EC50 (NADPH-coupled)) turn out when `CC(O)(c1ccc(N2CCN(S(=O)(=O)c3cccs3)CC2CC2CCOCC2)cc1)C(F)(F)F` (single isomer, unassigned) [Example 37 Peak #4, 1,1,1-trifluoro-2-(4-(2-(tetrahydro-2H-pyran-4-ylmethyl)-4-(2-thiophenylsulfonyl)-1-piperazinyl)phenyl)-2-propanol] was run?
Answer: > 50000 nM

Question: With `O=S(=O)(c1cccs1)N1CCN(c2ccc(C(O)(CO)C(F)(F)F)cc2)CC1` (single isomer, unassigned) [Example 66 Peak #2, 3,3,3-trifluoro-2-(4-(4-(2-thiophenylsulfonyl)-1-piperazinyl)phenyl)-1,2-propanediol] as the molecule, how does the EC50 [2, 4] read?
Answer: 1260 nM

Question: `CC(O)(c1ccc(N2CCN(S(=O)(=O)c3ccccc3)CC2)cc1)C(F)(F)F` (single isomer, unassigned) [Example 24 Peak #2, 1,1,1-trifluoro-2-(4-(4-(phenylsulfonyl)-1-piperazinyl)phenyl)-2-propanol] was tested. Which EC50 ([2]; GK-GKRP EC50 (LC MS/MS)) did it give?
Answer: 3010 nM

Question: Which EC50 [2, 4] does the source give for `C[C@H]1CN(S(=O)(=O)c2cccs2)CCN1c1ccc(C(O)(CO)C(F)(F)F)cc1` (mixture of isomers) [Example 67, 2-(4-((2S)-2-methyl-4-(2-thiophenylsulfonyl)-1-piperazinyl)phenyl)-3,3,3-trifluoro-1,2-propanediol] here?
Answer: 670 nM

Question: How did the EC50 ([1]; GK-GKRP EC50 (NADPH-coupled)) turn out when `C[C@H]1CN(S(=O)(=O)c2ccoc2)CCN1c1ccc(C(C)(O)C(F)(F)F)cc1` (stereo partly drawn) [Example 30, 1,1,1-trifluoro-2-(4-((2S)-4-(3-furanylsulfonyl)-2-methyl-1-piperazinyl)phenyl)-2-propanol] was run?
Answer: 3120 nM

Question: `CC(O)(c1ccc(N2CCN(S(=O)(=O)c3cccs3)C[C@@H]2Cn2ccc3cccnc32)cc1)C(F)(F)F` (mixture of isomers) [Example 172, 2-(4-((S)-2-((1H-pyrrolo[2,3-b]pyridin-1-yl)methyl)-4-(thiophen-2-ylsulfonyl)piperazin-1-yl)phenyl)-1,1,1-trifluoro-2-propanol] was tested. Which EC50 ([1]; GK-GKRP EC50 (NADPH-coupled)) did it give?
Answer: 253 nM

Question: What about the EC50 [3] of the same molecule?
Answer: 249 nM

Question: What does the source list for `CC(O)(c1ccc(N2CCN(S(=O)(=O)c3cccs3)C[C@@H]2Cn2ccc3nccnc32)cc1)C(F)(F)F` (mixture of isomers) [Example 171, 2-(4-((S)-2-((5H-pyrrolo[2,3-b]pyrazin-5-yl)methyl)-4-(thiophen-2-ylsulfonyl)piperazin-1-yl)phenyl)-1,1,1-trifluoro-2-propanol]?
Answer: EC50 ([1]; GK-GKRP EC50 (NADPH-coupled)): 649 nM; EC50 [3]: 801 nM

Question: `CC(O)(c1ccc(N2CCN(S(=O)(=O)c3cccs3)CC2CN2CC[C@@H](O)C2)cc1)C(F)(F)F` (mixture of isomers) [Example 56, (3R)-1-((4-(2-thiophenylsulfonyl)-1-(4-(2,2,2-trifluoro-1-hydroxy-1-methylethyl)phenyl)-2-piperazinyl)methyl)-3-pyrrolidinol] was tested. Which EC50 ([1]; GK-GKRP EC50 (NADPH-coupled)) did it give?
Answer: 3500 nM

Question: For `CC(O)(c1ccc(N2CCN(S(=O)(=O)c3nccs3)CC2)cc1)C(F)(F)F` (racemic) [Example 32, 1,1,1-trifluoro-2-(4-(4-(1,3-thiazol-2-ylsulfonyl)-1-piperazinyl)phenyl)-2-propanol trifluoroacetate], which EC50 ([2]; GK-GKRP EC50 (LC MS/MS)) is on record?
Answer: 4750 nM

Question: With `O=S(=O)(c1cccs1)N1CCN(c2ccc(C(O)(CO)C(F)(F)F)cc2)CC1` (single isomer, unassigned) [Example 66 Peak #1, 3,3,3-trifluoro-2-(4-(4-(2-thiophenylsulfonyl)-1-piperazinyl)phenyl)-1,2-propanediol] as the molecule, how does the EC50 [2, 4] read?
Answer: 4430 nM

Question: Which EC50 ([1]; GK-GKRP EC50 (NADPH-coupled)) does the source give for `O=S(=O)(c1cccs1)N1CCN(c2ccc(C(O)(C(F)(F)F)C(F)(F)F)cc2)C[C@H]1C1CC1` [Example 14, 2-(4-((3R)-3-cyclopropyl-4-(2-thiophenylsulfonyl)-1-piperazinyl)phenyl)-1,1,1,3,3,3-hexafluoro-2-propanol] here?
Answer: 5000 nM

Question: With `C[C@H]1COCCN1C[C@H]1CN(S(=O)(=O)c2ccc(N)nc2)CCN1c1ccc(C(O)(C(F)(F)F)C(F)(F)F)cc1` [Example 124, 2-(4-((2S)-4-((6-amino-3-pyridinyl)sulfonyl)-2-(((3S)-3-methyl-4-morpholinyl)methyl)-1-piperazinyl)phenyl)-1,1,1,3,3,3-hexafluoro-2-propanol] as the molecule, how does the EC50 ([1]; GK-GKRP EC50 (NADPH-coupled)) read?
Answer: 1 nM

Question: What about the EC50 [3] of the same molecule?
Answer: 18 nM

Question: What does the source list for `CC(O)(c1ccc(N2CCN(S(=O)(=O)c3cccs3)C[C@@H]2Cn2ccnc2)cc1)C(F)(F)F` (mixture of isomers) [Example 170, 2-(4-((S)-2-((1H-imidazol-1-yl)methyl)-4-(thiophen-2-ylsulfonyl)piperazin-1-yl)phenyl)-1,1,1-trifluoro-2-propanol]?
Answer: EC50 ([1]; GK-GKRP EC50 (NADPH-coupled)): 762 nM; EC50 [3]: 942 nM

Question: With `O=S(=O)(c1cccs1)N1CCN(c2ccc(C(O)(C(F)(F)F)C(F)(F)F)cc2)C(Cc2cccc(O)c2)C1` (racemic) [Example 176, 3-((1-(4-(1,1,1,3,3,3-hexafluoro-2-hydroxypropan-2-yl)phenyl)-4-(thiophen-2-ylsulfonyl)piperazin-2-yl)methyl)phenol] as the molecule, how does the EC50 ([1]; GK-GKRP EC50 (NADPH-coupled)) read?
Answer: 1810 nM

Question: `C[C@H]1COCCN1CC1CN(S(=O)(=O)c2cccs2)CCN1c1ccc(C(C)(O)C(F)(F)F)cc1` (single isomer, unassigned) [Example 45 Peak #3] was tested. Which EC50 ([1]; GK-GKRP EC50 (NADPH-coupled)) did it give?
Answer: 15100 nM
